PubChem BioAssay AID256 (DTP/NCI, 2004)
“And” between values parts separate entries of the source, which are not always exact repeats. Equal values may be shown once. Inconclusive results and toxic doses are left out.

Tested on: CD2F1 mice, L1210 leukemia ip, survival T/C
Assay: NCI In Vivo Anticancer Drug Screen. Data for tumor model L1210 Leukemia (intraperitoneal) in CD2F1 (CDF1) mice
Settings: higher = longer survival
Outline: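 Vehicle-treated tumor-bearing mice served as controls (C) for compound-treated mice (T). Reported figure is T divided by C.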

[1] = endpoint: mean survival time, dose: 100.0 mg/kg/injection, schedule: Q01DX009 (ip), vehicle: saline
[2] = endpoint: mean survival time, dose: 200.0 mg/kg/injection, schedule: Q01DX009 (ip), vehicle: saline
[3] = endpoint: mean survival time, dose: 400.0 mg/kg/injection, schedule: Q01DX009 (ip), vehicle: saline
[4] = endpoint: mean survival time, dose: 100.0 mg/kg/injection, schedule: Q04DX003 (ip), vehicle: saline with Tween-80
[5] = endpoint: mean survival time, dose: 200.0 mg/kg/injection, schedule: Q04DX003 (ip), vehicle: saline with Tween-80
[6] = endpoint: mean survival time, dose: 400.0 mg/kg/injection, schedule: Q04DX003 (ip), vehicle: saline with Tween-80
[7] = endpoint: mean survival time, dose: 100.0 mg/kg/injection, schedule: Q01DX001 (ip), vehicle: saline with Tween-80
[8] = endpoint: mean survival time, dose: 200.0 mg/kg/injection, schedule: Q01DX001 (ip), vehicle: saline with Tween-80
[9] = endpoint: mean survival time, dose: 400.0 mg/kg/injection, schedule: Q01DX001 (ip), vehicle: saline with Tween-80
[10] = endpoint: mean survival time, dose: 100.0 mg/kg/injection, schedule: Q01DX001 (ip), vehicle: saline
[11] = endpoint: mean survival time, dose: 200.0 mg/kg/injection, schedule: Q01DX001 (ip), vehicle: saline

## O=C1CCCCCC2=NC12 (configuration not stated)
endpoint: median survival time, dose: 6.25 mg/kg/injection, schedule: Q01DX009 (ip), vehicle: Klucel (hydroxypropylcellulose) (HPC)
  T/C: 97 % of control
endpoint: median survival time, dose: 12.5 mg/kg/injection, schedule: Q01DX009 (ip), vehicle: Klucel (hydroxypropylcellulose) (HPC)
  T/C: 102 % of control
endpoint: median survival time, dose: 25.0 mg/kg/injection, schedule: Q01DX009 (ip), vehicle: Klucel (hydroxypropylcellulose) (HPC)
  T/C: 105 % of control
endpoint: median survival time, dose: 50.0 mg/kg/injection, schedule: Q01DX009 (ip), vehicle: Klucel (hydroxypropylcellulose) (HPC)
  T/C: 111 % of control

## c1ccc2c(c1)-c1nc3ccccc3cc1C2N1CCCCC1 (configuration not stated)
[1]
  T/C: 105 % of control
[2]
  T/C: 103 % of control
[3]
  T/C: 97 % of control

## CC12CS(=O)(=O)CC1O2 (configuration not stated)
[4]
  T/C: 101 % of control
[5]
  T/C: 96 % of control
[6]
  T/C: 101 % of control

## CC1=C/C(=N/Nc2ccc([N+](=O)[O-])cc2[N+](=O)[O-])CC(C)(C)C1
[7]
  T/C: 92 % of control
[8]
  T/C: 90 % of control
[9]
  T/C: 95 % of control

## CC(C)(CO)NC(=O)CCO
[1]
  T/C: 101 % of control
endpoint: mean survival time, dose: 100.0 mg/kg/injection, schedule: Q04DX003 (ip), vehicle: saline
  T/C: 97 % of control
[2]
  T/C: 103 % of control
endpoint: mean survival time, dose: 200.0 mg/kg/injection, schedule: Q04DX003 (ip), vehicle: saline
  T/C: 98 % of control
[3]
  T/C: 104 % of control
endpoint: mean survival time, dose: 400.0 mg/kg/injection, schedule: Q04DX003 (ip), vehicle: saline
  T/C: 101 % of control

## O=S(=O)(F)c1ccc(-c2cc(Cl)c3cc(F)ccc3n2)cc1
[7]
  T/C: 98 % of control
[8]
  T/C: 98 % of control
[9]
  T/C: 94 % of control

## CN(C)/N=C(\CBr)c1ccccc1
endpoint: mean survival time, dose: 50.0 mg/kg/injection, schedule: Q01DX009 (ip), vehicle: saline sonified
  T/C: 96 % of control
[10]
  T/C: 102 % of control
endpoint: mean survival time, dose: 100.0 mg/kg/injection, schedule: Q01DX009 (ip), vehicle: saline sonified
  T/C: 103 % of control
[11]
  T/C: 100 % of control

## O=C(Nc1c(Oc2ccc(Cl)cc2)ccc(Cl)c1S(=O)(=O)O)Nc1c(Oc2ccc(Cl)c(Cl)c2)ccc(Cl)c1S(=O)(=O)O
[10]
  T/C: 93 % of control
[11]
  T/C: 88 % of control

## c1cc2c(cc1NC1=NCCO1)CCC2
endpoint: mean survival time, dose: 6.25 mg/kg/injection, schedule: Q04DX003 (ip), vehicle: saline with Tween-80
  T/C: 103 % of control
endpoint: mean survival time, dose: 12.5 mg/kg/injection, schedule: Q04DX003 (ip), vehicle: saline with Tween-80
  T/C: 108 % of control
endpoint: mean survival time, dose: 25.0 mg/kg/injection, schedule: Q04DX003 (ip), vehicle: saline with Tween-80
  T/C: 111 % of control

## O=[N+]([O-])c1cc[n+]([O-])cc1
endpoint: mean survival time, dose: 75.0 mg/kg/injection, schedule: Q01DX001 (ip), vehicle: saline
  T/C: 106 % of control

## [Pt+4].[c-]1ccccc1C1CCCC[N-]1.[c-]1ccccc1C1CCCC[N-]1 (configuration not stated)
endpoint: median survival time, dose: 3.12 mg/kg/injection, schedule: Q04DX003 (ip), vehicle: saline
  T/C: 107 % of control
endpoint: median survival time, dose: 6.25 mg/kg/injection, schedule: Q04DX003 (ip), vehicle: saline
  T/C: 107 % of control
endpoint: median survival time, dose: 12.5 mg/kg/injection, schedule: Q04DX003 (ip), vehicle: saline
  T/C: 103 % of control
endpoint: median survival time, dose: 25.0 mg/kg/injection, schedule: Q04DX003 (ip), vehicle: saline
  T/C: 103 % of control
endpoint: median survival time, dose: 50.0 mg/kg/injection, schedule: Q04DX003 (ip), vehicle: saline
  T/C: 107 % of control
endpoint: median survival time, dose: 100.0 mg/kg/injection, schedule: Q04DX003 (ip), vehicle: saline
  T/C: 103 % of control
endpoint: median survival time, dose: 200.0 mg/kg/injection, schedule: Q04DX003 (ip), vehicle: saline
  T/C: 103 % of control

## O=C1C(NCC(O)CO)=C(N2CC2)C(=O)C(NCC(O)CO)=C1N1CC1 (configuration not stated)
endpoint: mean survival time, dose: 1.25 mg/kg/injection, schedule: Q01DX009 (oral), vehicle: saline
  T/C: 91 % of control and 103 % of control
endpoint: mean survival time, dose: 2.5 mg/kg/injection, schedule: Q01DX009 (oral), vehicle: saline
  T/C: 98 % of control
endpoint: mean survival time, dose: 10.0 mg/kg/injection, schedule: Q01DX009 (oral), vehicle: saline
  T/C: 109 % of control
endpoint: mean survival time, dose: 20.0 mg/kg/injection, schedule: Q01DX009 (oral), vehicle: saline
  T/C: 104 % of control and 105 % of control
endpoint: median survival time, dose: 0.5 mg/kg/injection, schedule: Q01DX009 (ip), vehicle: saline
  T/C: 123 % of control
endpoint: median survival time, dose: 2.0 mg/kg/injection, schedule: Q01DX009 (ip), vehicle: saline
  T/C: 163 % of control
endpoint: median survival time, dose: 4.0 mg/kg/injection, schedule: Q01DX009 (ip), vehicle: saline
  T/C: 228 % of control
endpoint: median survival time, dose: 8.0 mg/kg/injection, schedule: Q01DX009 (ip), vehicle: saline
  T/C: 195 % of control

## CCOC1C=CCCC1 (configuration not stated)
endpoint: mean survival time, dose: 100.0 mg/kg/injection, schedule: Q01DX009 (ip), vehicle: saline with Tween-80
  T/C: 95 % of control
[4]
  T/C: 97 % of control
endpoint: mean survival time, dose: 200.0 mg/kg/injection, schedule: Q01DX009 (ip), vehicle: saline with Tween-80
  T/C: 95 % of control
[5]
  T/C: 93 % of control
[6]
  T/C: 97 % of control
